For the test, the target named is T1, ASGPR (Homo sapiens, UniProt P07306).
T1 sequence (P07306 1-291): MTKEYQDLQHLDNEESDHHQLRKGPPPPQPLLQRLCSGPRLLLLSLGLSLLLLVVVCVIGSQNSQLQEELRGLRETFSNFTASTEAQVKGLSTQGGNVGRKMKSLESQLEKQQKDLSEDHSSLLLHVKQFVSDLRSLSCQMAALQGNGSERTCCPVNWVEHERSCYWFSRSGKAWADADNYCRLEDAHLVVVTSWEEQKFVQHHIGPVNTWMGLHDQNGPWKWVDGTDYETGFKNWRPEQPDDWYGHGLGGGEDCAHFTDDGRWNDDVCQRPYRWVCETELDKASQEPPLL
Kind of test: Affinity to ASGPR by surface plasmon resonance (SPR). For orientation: In SPR one partner is held on a chip, and binding of the other changes the refractive index at the surface.

Where a SMILES comes first, the peptide text is derived from it. Bridges are numbered along the chain shown (N, C = ends). The star is where a group is joined. X3 = O=C(CCOCC(COCCC(=O)NCCOCCOCCOCCOC[C@@]12CO[C@@H](O1)[C@H](Nc1nc(Cl)ns1)[C@@H](O)[C@H]2O)NC(=O)CCCCCn1cc(CCCC(=O)*)nn1)NCCOCCOCCOCCOC[C@@]12CO[C@@H](O1)[C@H](Nc1nc(Cl)ns1)[C@@H](O)[C@H]2O; PEG4 = NCCOCCOCCOCCOCCC(=O)O

As for `[N-]=[N+]=NCCCCCC(=O)NC(COCCC(=O)NCCOCCOCCOCCOC[C@@]12CO[C@@H](O1)[C@H](Nc1nc(Cl)ns1)[C@@H](O)[C@H]2O)COCCC(=O)NCCOCCOCCOCCOC[C@@]12CO[C@@H](O1)[C@H](Nc1nc(Cl)ns1)[C@@H](O)[C@H]2O` [A14, 3,3′-((2-(6-azidohexanamido)propane-1,3-diyl)bis(oxy))bis(N-(1-((1S,2R,3R,4R,5S)-4-((3-chloro-1,2,4-thiadiazol-5-yl)amino)-2,3-dihydroxy-6,8-dioxabicyclo[3.2.1]octan-1-yl)-2,5,8,11-tetraoxatridecan-13-yl)propanamide)], the Kd lay within 0.1 to 0.5 µM.
With `O=C(CCOCc1ccc(-c2cccc3ccncc23)c(OCCc2ccc(-c3cccc4ccncc34)cc2)c1)NCCOCCOCCOCCOC[C@@]12CO[C@@H](O1)[C@H](Nc1cncc(C(F)(F)F)n1)[C@@H](O)[C@H]2O` [Compound 56], the dissociation constant Kd was < 0.1 µM.
For the compound `CC(C)C[C@@H]1NC(=O)[C@@H](NC(=O)[C@@H](NC(=O)[C@H](CCC(N)=O)NC(=O)[C@H](Cc2c[nH]cn2)NC(=O)CCOCCOCCOCCOCCNC(=O)CCCc2cn(CCCCCC(=O)NC(COCCC(=O)NCCOCCOCCOCCOC[C@@]34CO[C@@H](O3)[C@H](Nc3nc(Cl)ns3)[C@@H](O)[C@H]4O)COCCC(=O)NCCOCCOCCOCCOC[C@@]34CO[C@@H](O3)[C@H](Nc3nc(Cl)ns3)[C@@H](O)[C@H]4O)nn2)C(C)C)CSSC[C@@H](C(=O)N[C@@H](Cc2ccccc2)C(=O)N[C@@H](CO)C(=O)N[C@H](C(N)=O)[C@@H](C)O)NC(=O)[C@H](C(C)C)NC(=O)[C@@H]2CCCN2C(=O)[C@H](CCCNC(=N)N)NC(=O)CNC(=O)[C@H](CCCNC(=N)N)NC(=O)[C@H](Cc2ccc(O)cc2)NC(=O)[C@H](CO)NC1=O` [Compound 19] ({X3-PEG4}-HQVCLSYRGRPVCFST-NH2; disulfide 4-13), the Kd is < 0.1 µM.
Take `[N-]=[N+]=NCCCCCC(=O)NC(COCc1cn(CCOCCOCCOCCOC[C@H]2OC[C@H](Nc3nccc(C(F)(F)F)n3)[C@@H](O)[C@H]2O)nn1)COCc1cn(CCOCCOCCOCCOC[C@H]2OC[C@H](Nc3nccc(C(F)(F)F)n3)[C@@H](O)[C@H]2O)nn1` [A15, 6-azido-N-(1,3-bis((1-(1-((2R,3R,4R,5S)-3,4-dihydroxy-5-((4-(trifluoromethyl)pyrimidin-2-yl)amino)tetrahydro-2H-pyran-2-yl)-2,5,8,11-tetraoxatridecan-13-yl)-1H-1,2,3-triazol-4-yl)methoxy)propan-2-yl)hexanamide]: the Kd was < 0.1 µM.
As for `O[C@@H]1[C@H](O)[C@@H](Nc2nccc(C(F)(F)F)n2)CO[C@@H]1c1nc2ccc(Br)cc2[nH]1` [A94, (2R,3R,4R,5S)-2-(6-bromo-1H-benzo[d]imidazol-2-yl)-5-((4-(trifluoromethyl)pyrimidin-2-yl)amino)tetrahydro-2H-pyran-3,4-diol], the Kd was > 20 µM.
Next, `O=[N+]([O-])c1ccc(NCCOCCOCCOCCOC[C@H]2OC[C@@H](Nc3nc(Cl)ns3)[C@@H](O)[C@H]2O)c([N+](=O)[O-])c1` [Compound 24, (2R,3R,4R,5R)-5-((3-chloro-1,2,4-thiadiazol-5-yl)amino)-2-(13-((2,4-dinitrophenyl)amino)-2,5,8,11-tetraoxatridecyl)tetrahydro-2H-pyran-3,4-diol]: < 0.1 µM; `CC(=O)NC[C@H]1OC[C@H](Nc2cncc(C(F)(F)F)n2)[C@@H](O)[C@H]1O` [A90, N-(((2R,3R,4R,5S)-3,4-dihydroxy-5-((6-(trifluoromethyl)pyrazin-2-yl)amino)tetrahydro-2H-pyran-2-yl)methyl)acetamide]: < 1 µM; `O[C@@H]1[C@H](O)[C@@H](Nc2cncc(C(F)(F)F)n2)CO[C@@H]1CN1CCCCC1` [A96, (2R,3R,4R,5S)-2-(piperidin-1-ylmethyl)-5-((6-(trifluoromethyl)pyrazin-2-yl)amino)tetrahydro-2H-pyran-3,4-diol]: 1 to 10 µM.
For the compound `O=C(O)CC(=O)NC[C@H]1OC[C@H](Nc2cncc(C(F)(F)F)n2)[C@@H](O)[C@H]1O` [A32, 3-((((2R,3R,4R,5S)-3,4-dihydroxy-5-((6-(trifluoromethyl)pyrazin-2-yl)amino)tetrahydro-2H-pyran-2-yl)methyl)amino)-3-oxopropanoic acid], the dissociation constant Kd is < 1 µM.
For `[N-]=[N+]=NC[C@H]1OC[C@H](Nc2nccc(C(F)(F)F)n2)[C@@H](O)[C@H]1O` [A59, (2R,3R,4R,5S)-2-(azidomethyl)-5-((4-(trifluoromethyl)pyrimidin-2-yl)amino)tetrahydro-2H-pyran-3,4-diol], the Kd was < 1 µM.
For `C=CCO[C@H]1O[C@H](Cn2ccnn2)[C@H](O)[C@H](O)[C@H]1Nc1nccc(C(F)(F)F)n1` [A69, (2R,3R,4R,5R,6S)-2-((1H-1,2,3-triazol-1-yl)methyl)-6-(allyloxy)-5-((4-(trifluoromethyl)pyrimidin-2-yl)amino)tetrahydro-2H-pyran-3,4-diol], the Kd is < 1 µM.
Under `O=C(O)CNC(COCCC(=O)NCCOCCOCCOCCOC[C@H]1OC[C@H](Nc2cncc(C(F)(F)F)n2)[C@@H](O)[C@H]1O)COCCC(=O)NCCOCCOCCOCCOC[C@H]1OC[C@H](Nc2cncc(C(F)(F)F)n2)[C@@H](O)[C@H]1O` [A31, (1,39-bis((2R,3R,4R,5S)-3,4-dihydroxy-5-((6-(trifluoromethyl)pyrazin-2-yl)amino)tetrahydro-2H-pyran-2-yl)-15,25-dioxo-2,5,8,11,18,22,29,32,35,38-decaoxa-14,26-diazanonatriacontan-20-yl)glycine] stands < 0.1 µM; under `NC(COCCC(=O)NCCOCCOCCOCCOC[C@H]1OC[C@H](Nc2cncc(C(F)(F)F)n2)[C@@H](O)[C@H]1O)COCCC(=O)NCCOCCOCCOCCOC[C@H]1OC[C@H](Nc2cncc(C(F)(F)F)n2)[C@@H](O)[C@H]1O` [A131], < 0.1 µM; under `COc1cccc(-n2cc([C@H]3OC[C@H](Nc4nccc(C(F)(F)F)n4)[C@@H](O)[C@H]3O)nn2)c1` [A61, (2R,3R,4R,5S)-2-(1-(3-methoxyphenyl)-1H-1,2,3-triazol-4-yl)-5-((4-(trifluoromethyl)pyrimidin-2-yl)amino)tetrahydro-2H-pyran-3,4-diol], 10 to 100 µM.
For `O=C(NC[C@H]1OC[C@H](Nc2cncc(C(F)(F)F)n2)[C@@H](O)[C@H]1O)[C@H]1C[C@H]1F` [A108, (1R,2R)—N-(((2R,3R,4R,5S)-3,4-dihydroxy-5-((6-(trifluoromethyl)pyrazin-2-yl)amino)tetrahydro-2H-pyran-2-yl)methyl)-2-fluorocyclopropane-1-carboxamide], the Kd is > 20 µM.
For `C=CCO[C@H]1O[C@H](Cn2cc(-c3cccc(OC)c3)nn2)[C@H](O)[C@H](O)[C@H]1Nc1nccc(C(F)(F)F)n1` [A58, (2R,3R,4R,5R,6S)-6-(allyloxy)-2-((4-(3-methoxyphenyl)-1H-1,2,3-triazol-1-yl)methyl)-5-((4-(trifluoromethyl)pyrimidin-2-yl)amino)tetrahydro-2H-pyran-3,4-diol], the Kd lay in the range of 1 to 10 µM.
For `COc1cccc(N(C)C[C@H]2OC[C@H](Nc3cncc(C(F)(F)F)n3)[C@@H](O)[C@H]2O)c1` [A106, (2R,3R,4R,5S)-2-(((3-methoxyphenyl)(methyl)amino)methyl)-5-((6-(trifluoromethyl)pyrazin-2-yl)amino)tetrahydro-2H-pyran-3,4-diol], the Kd is < 1 µM.
For `CN(C)C[C@H]1OC[C@H](Nc2cncc(C(F)(F)F)n2)[C@@H](O)[C@H]1O` [A126], the Kd is < 1 µM.
Consider `COCCO[C@@H]1O[C@H](CO)[C@H](O)[C@H](O)[C@H]1Nc1cncc(C(F)(F)F)n1` [A105, (2R,3R,4R,5R,6R)-2-(hydroxymethyl)-6-(2-methoxyethoxy)-5-((6-(trifluoromethyl)pyrazin-2-yl)amino)tetrahydro-2H-pyran-3,4-diol], for which the Kd was in the range of 1 to 10 µM.
With `O=C(O)COCCOCCOCC(=O)NC(COCCC(=O)NCCOCCOCCOCCOC[C@H]1OC[C@H](Nc2cncc(C(F)(F)F)n2)[C@@H](O)[C@H]1O)COCCC(=O)NCCOCCOCCOCCOC[C@H]1OC[C@H](Nc2cncc(C(F)(F)F)n2)[C@@H](O)[C@H]1O` [A26, 1-((2R,3R,4R,5S)-3,4-dihydroxy-5-((6-(trifluoromethyl)pyrazin-2-yl)amino)tetrahydro-2H-pyran-2-yl)-20-(1-((2R,3R,4R,5S)-3,4-dihydroxy-5-((6-(trifluoromethyl)pyrazin-2-yl)amino)tetrahydro-2H-pyran-2-yl)-15-oxo-2,5,8,11,18-pentaoxa-14-azanonadecan-19-yl)-15,22-dioxo-2,5,8,11,18,24,27,30-octaoxa-14,21-diazadotriacontan-32-oic acid], the Kd was < 0.1 µM.
In turn, `O=C(O)COCCOCCOCCOC[C@H]1OC[C@H](Nc2nccc(C(F)(F)F)n2)[C@@H](O)[C@H]1O` [A25, 1-((2R,3R,4R,5S)-3,4-dihydroxy-5-((4-(trifluoromethyl)pyrimidin-2-yl)amino)tetrahydro-2H-pyran-2-yl)-2,5,8,11-tetraoxatridecan-13-oic acid] had a Kd of 0.1 to 0.5 µM.
Next, `COC(=N)c1cc(OC)nc(N[C@H]2CO[C@H](CO)[C@H](O)[C@@H]2O)n1` [A48, methyl 2-(((3S,4R,5R,6R)-4,5-dihydroxy-6-(hydroxymethyl)tetrahydro-2H-pyran-3-yl)amino)-6-methoxypyrimidine-4-carbimidate]: 1 to 10 µM; `O=C(O)CNC(COCCC(=O)NCCOCCOCCOCCOC[C@H]1OC[C@H](Nc2nccc(C(F)(F)F)n2)[C@@H](O)[C@H]1O)COCCC(=O)NCCOCCOCCOCCOC[C@H]1OC[C@H](Nc2nccc(C(F)(F)F)n2)[C@@H](O)[C@H]1O` [A132]: < 0.1 µM; `OC[C@@]12CO[C@@H](O1)[C@H](Nc1nccc(C(F)(F)F)c1F)[C@@H](O)[C@H]2O` [A42, (1S,2R,3R,4R,5S)-4-[[3-fluoro-4-(trifluoromethyl)-2-pyridyl]amino]-1-(hydroxymethyl)-6,8-dioxabicyclo[3.2.1]octane-2,3-diol]: 10 to 100 µM.

One may read the Kd as the constant that tells how readily two partners part at equilibrium.

(Values after patent US12091402B2 (Avilar Therapeutics, Inc., priority 2021, dated 2024).)
